Reference: patent publication US10238670B2, “9-aminomethyl minocycline compounds and methods of use thereof in urinary tract infection (UTI) treatment” (Paratek Pharmaceuticals, Inc., priority 2016, dated 2019)

What was measured:
[1] = In vitro plasma protein binding (ultrafiltration), rat plasma; format: in vitro ADME, rat (HanWistar); conditions: HanWistar, 10-10,000 ng/mL, mean±SD, read-out: mean unbound protein fraction (fu) in plasma
Procedure: (§1) For human binding studies, plasma was obtained from the blood of three healthy male volunteers. Plasma was defrosted from storage at -20° C. before use, and pools of human plasma were used for all studies. Plasma from mouse, rat, and monkey was supplied by Harlan Laboratories Ltd. (Netherlands), Milan […], Switzerland) and Centre de Primatologie ULP (France), respectively. Protein binding was measured using an ultrafiltration method. To asses the suitability of ultrafiltration, the recovery and free permeation of [^14C]-labelled Compound 1 in PBS buffer were investigated. […] Three 1 mL aliquots per concentration were introduced into […]® devices and spun for 1 min at 2000 g (filtrate ≤500 μL). Samples of the spiked solutions, the filtrate and retentate were quantified by LSC; volumes were determined by weighing. The free permeation of the test compound in PBS was evaluated as follows: Ratio=[Cuf/Cr] with Cuf being the concentration in the ultrafiltrate (ng/mL) and Cr the concentration in the retentate (ng/mL). […] Specifically, concentrations of Compound 1 was determined by an UPLC-MS/MS method. […] The ions monitored for Compound 1 was the parent [M+H]^+ ion at m/z 557.3.0; the product ions at m/z 453.4. […] The quantification was performed using Analyst software and Watson LIMS version 7.2.0.01. […] The lower limit of quantitation was 5.0 ng/mL for Compound 1.

[2] = system: plasma proteins; assay: as above; format: in vitro ADME, rat (HanWistar); conditions: 10-10,000 ng/mL
Procedure: as §1

[3] = system: S. saprophyticus; assay: In vitro activity in urine relative to standard media; format: cell-based
[4] = 14C-labeled Compound 1 single oral 300 mg dose, plasma and urine; format: in vivo, human; conditions: for AUC(0-inf): 300 mg
Procedure: ^14C-labeled Compound 1 was administered as a single oral 300 mg dose to healthy human subjects. […] The concentrations of Compound 1 in urine are shown in Table 2 and indicate that urine concentrations exceed the plasma concentrations throughout the dosing interval. The AUC0-24 in urine was 186.1 μg*hr/ml.
While the driver of efficacy for Compound 1 in UTI is not completely known, and while not wishing to be bound by any particular theory, Applicant believes that maximizing time of urine concentration above pathogen MIC (ideally, throughout the dosing interval) is desirable. This belief is partly based on a clinical study that evaluated the disposition of a single 300 mg oral dose of ^14C-Compound 1. In this study, plasma concentrations were consistent with previous oral dosing studies (area under the concentration-time curve from 0 to infinity [AUC0-inf] 9.4 μg·h/mL), and it was determined that approximately 40% of the absorbed dose was eliminated in the urine. Urine concentrations of Compound 1 were not measured directly but estimated concentrations (based on portion of excreted radioactivity) exceeded plasma concentrations and averaged between 7.6 and 11.2 μg/mL over the 24 hours following dosing. These urine concentrations would exceed the MIC90 for ESBL-producing E. coli (4 μg/mL) by approximately 2-fold. It is also known from Applicant's clinical studies that exposure to Compound 1 based on plasma concentrations is approximately 50% higher at steady-state than after a single dose.

[5] = In vitro plasma protein binding (ultrafiltration), mouse plasma; format: in vitro ADME, mouse (CD-1); conditions: CD-1, 10-10,000 ng/mL, mean±SD, read-out: mean unbound protein fraction (fu) in plasma
Procedure: (§2) For human binding studies, plasma was obtained from the blood of three healthy male volunteers. Plasma was defrosted from storage at -20° C. before use, and pools of human plasma were used for all studies. Plasma from mouse, rat, and monkey was supplied by Harlan Laboratories Ltd. (Netherlands), Milan […], Switzerland) and Centre de Primatologie ULP (France), respectively. Protein binding was measured using an ultrafiltration method. To asses the suitability of ultrafiltration, the recovery and free permeation of [^14C]-labelled Compound 1 in PBS buffer were investigated. […] Three 1 mL aliquots per concentration were introduced into […]® devices and spun for 1 min at 2000 g (filtrate ≤500 μL). Samples of the spiked solutions, the filtrate and retentate were quantified by LSC; volumes were determined by weighing. The free permeation of the test compound in PBS was evaluated as follows: Ratio=[Cuf/Cr] with Cuf being the concentration in the ultrafiltrate (ng/mL) and Cr the concentration in the retentate (ng/mL). […] Specifically, concentrations of Compound 1 was determined by an UPLC-MS/MS method. […] Standards and quality control samples were prepared on the day of analysis by adding a 20 μL aliquot of an appropriate standard or QC spiking solution in methanol. A 25 μL aliquot of the internal standard (at 200 ng/mL in methanol) was added to each well except blanks. […] Samples were processed using protein precipitation. A 0.5 mL aliquot of an acetonitrile/ethanol/acetic acid mixture (90:10:0.1, v:v:v) was added to each sample; samples were mixed using a vortex mixer for 10 minutes, and centrifuged 3800 rpm (approximately 2500×g) for 10 min at 10° C. […] The ions monitored for Compound 1 was the parent [M+H]^+ ion at m/z 557.3.0; the product ions at m/z 453.4. […] The quantification was performed using Analyst software and Watson LIMS version 7.2.0.01. Concentrations in QC and study samples were calculated from the resulting peak area ratios and interpolation from the regression equations of the respective calibration curves. The lower limit of quantitation was 5.0 ng/mL for Compound 1.

[6] = system: plasma proteins; assay: as above; format: in vitro ADME, mouse (CD-1); conditions: 10-10,000 ng/mL
Procedure: as §2

[7] = system: E. coli isolates, including ESBL+ and quinolone resistance phenotypes; assay: In vitro MIC, 2010 surveillance study of 4171 E. coli isolates; format: cell-based
[8] = system: E. coli (ATCC 25922); conditions: Macone 2014; cited from earlier work
[9] = 14C-Compound 1 excretion and kidney/blood distribution in rats; format: in vivo, rat; conditions: for dose excreted in the urine: IV 5 mg/kg
Procedure: In rats, based on ^14C-Compound 1 dosed intravenously, approximately 30% of the dose (5 mg/kg) was excreted in the urine, with 25% excreted in the first 24 hours. The remainder of the dose was excreted into the feces. After IV dosing, the concentration of radioactivity in the kidney (cortex: 12,700 ng/g; medulla: 11,500 ng/g; pelvis: 11,300 ng/g) exceeded the blood concentration (1,570 ng/ml) 5 minutes post dose and at 24 hrs post dose (blood: 57.6 ng/ml; kidney cortex 318 ng/g; kidney medulla: 167 ng/g; kidney pelvis: 161 ng/g).

CN(C)c1cc(CNCC(C)(C)C)c(O)c2c1C[C@H]1C[C@H]3[C@H](N(C)C)C(O)=C(C(N)=O)C(=O)[C@@]3(O)C(O)=C1C2=O [Compound 1, 9-[(2,2-dimethyl-propylamino)-methyl]-minocycline]
fraction unbound [1]: 0.739 ± 0.121
Mean (SD) Bound Fraction [2]: 26.1 (12.3) %
activity in urine relative to standard media [3]: stable
absorbed dose eliminated in the urine ([4]; human, in vivo, po): approximately 40%
estimated concentrations in urine, average over 24 hours ([4]; human, in vivo, po): 7.6 and 11.2
urine concentration relative to 4 μg/mL (MIC90 for ESBL-producing E. coli) ([4]; human, in vivo, po): approximately 2 fold
AUC(0-inf) ([4]; human, in vivo, po, plasma AUC0-inf): 9400 ng·h/mL
AUC(0-inf) ([4]; human, in vivo, po, plasma AUCinf): 9420 ng·h/mL
plasma Cmax ([4]; single oral 300 mg dose, healthy subjects): 563 ng/mL
fraction unbound [5]: 0.847 ± 0.0531
Mean (SD) Bound Fraction [6]: 15.3 (5.31) %
mean unbound protein fraction (fu) in plasma ([6]; mean±SD): 84.7±5.3%
isolates with an MIC value <4 μg/mL [7]: > 97%
reported MIC against E. coli [8]: 0.5 to 2 µg/mL
dose excreted in the urine ([9]; first 24 hours): 25%
dose excreted in the urine ([9]; total): approximately 30%
concentration of radioactivity, blood ([9]; IV, 5 minutes post dose): 1,570 ng/ml
concentration of radioactivity, kidney cortex ([9]; IV, 5 minutes post dose): 12,700 ng/g
concentration of radioactivity, kidney medulla ([9]; IV, 5 minutes post dose): 11,500 ng/g
concentration of radioactivity, kidney cortex ([9]; IV, 24 hrs post dose): 318 ng/g
concentration of radioactivity, kidney medulla ([9]; IV, 24 hrs post dose): 167 ng/g
concentration of radioactivity, kidney pelvis ([9]; IV, 24 hrs post dose): 161 ng/g
